Laboratory results from paper PMC3901262 (Investigational new drugs, 2013).
One block for each molecule: values may come before it.

Legend:
[1] = Plasma pharmacokinetics of vorinostat and metabolites; type: in vivo, human; details: for AUC (0-infinity) / Cmax / T1/2 / Tmax / AUC / Cl/F: plasma; for AUC: Mean AUC
[2] = test system: patients with advanced solid tumors; assay: Phase I dose escalation: toxicity, DLT and MTD; type: in vivo, human
[3] = test system: refractory NSCLC; details: single agent; ref [36]; cited from earlier work
[4] = C1D1, vorinostat 400 mg oral alone (single dose)
[5] = C1D2, vorinostat 400 mg oral + bortezomib
[6] = C1D12, vorinostat 400 mg oral steady state, with bortezomib

AUC (0-infinity) [1, 4]: 4843 ± 3034 ng·h/mL | Cmax [1, 4]: 1153 ± 922 ng/mL | T1/2 [1, 4]: 1.9 ± 1.4 h | Tmax [1, 4]: 1.9 ± 1.0 h | AUC (0-infinity) [1, 5]: 5283 ± 2915 ng·h/mL | Cmax [1, 5]: 1225 ± 496 ng/mL | T1/2 [1, 5]: 1.6 ± 0.5 h | Tmax [1, 5]: 3.2 ± 1.8 h | AUC (0-infinity) [1, 6]: 4169 ± 1548 ng·h/mL | Cmax [1, 6]: 849 ± 479 ng/mL | T1/2 [1, 6]: 2.0 ± 0.8 h | Tmax [1, 6]: 2.0 ± 1.0 h
Compound: O=C(CCCCCCC(=O)Nc1ccccc1)NO[C@@H]1O[C@H](C(=O)O)[C@@H](O)[C@H](O)[C@H]1O [Vorinostat glucuronide, vorinostat glucuronide]

mean baseline plasma concentration ([1]; Day 2, before vorinostat dose): 130 ± 68 ng/mL | Cmax [1, 4]: 815 ± 282 ng/mL | Tmax [1, 4]: 2.8 ± 1.4 h
Compound: O=C(O)CCC(=O)Nc1ccccc1 [Vorinostat acid, 4-anilino-4-oxobutanoic acid]

Compound: CC(C)C[C@H](NC(=O)[C@H](Cc1ccccc1)NC(=O)c1cnccn1)B(O)O [bortezomib]
MTD, bortezomib ([2]; IV days 1, 4, 8, 11 of 21-day cycle, with vorinostat 400 mg): 1.3 mg/m^2

Compound: O=C(CCCCCCC(=O)Nc1ccccc1)NO [vorinostat, suberoylanilide hydroxamic acid]
objective antitumor activity [3]: no objective antitumor activity | AUC and Cmax in individuals experiencing a DLT compared with no DLT ([1]; all days of treatment, p < 0.05): significantly higher | AUC and Cmax on day 12 compared with day 1 ([1]; cycle 1, steady state vs single dose, p < 0.05): significantly higher | day 1 compared with day 2 plasma concentrations (influence of bortezomib) ([1]; cycle 1, vorinostat alone vs vorinostat + bortezomib): no difference | Cmax ([1]; human, oral, 400 mg, Cmax, C1D1, patients with DLT (3)): 551 ± 174 ng/mL | AUC ([1]; human, oral, 400 mg, C1D1, patients with DLT (3)): 1450 ± 277 ng·h/mL | AUC ([1]; human, oral, 400 mg, C1D1, patients with No DLT (16)): 999 ± 438 ng·h/mL | Cmax ([1]; human, oral, Cmax, C1D2, patients with DLT (3)): 675 ± 363 ng/mL | Cmax ([1]; human, oral, Cmax, C1D12, patient with DLT (1)): 905 ng/mL | Cmax ([1]; human, oral, Cmax, C1D12, patients with No DLT (13)): 448 ± 314 ng/mL | AUC ([1]; human, oral, C1D2, patients with DLT (3)): 1790 ± 436 ng·h/mL | AUC ([1]; human, oral, C1D2, patients with No DLT (16)): 983 ± 418 ng·h/mL | AUC ([1]; human, oral, C1D12, patient with DLT (1)): 2230 ng·h/mL | AUC ([1]; human, oral, C1D12, patients with No DLT (13)): 1410 ± 962 ng·h/mL | Cl/F [1, 4]: 6.4 ± 3.2 L/min | Cl/F [1, 5]: 11 ± 4.1 L/min | Cl/F [1, 6]: 13 ± 3.3 L/min | MTD, vorinostat ([2]; orally daily days 1-14 of 21-day cycle, with bortezomib): 400 mg
